Assay results taken from the supplement of paper PMC10307832.

Key:
Alpelisib + Dasatinib = compound: Cc1nc(NC(=O)N2CCC[C@H]2C(N)=O)sc1-c1ccnc(C(C)(C)C(F)(F)F)c1 [Alpelisib] + Cc1nc(Nc2ncc(C(=O)Nc3c(C)cccc3Cl)s2)cc(N2CCN(CCO)CC2)n1 [Dasatinib] (partner 0.075 µM); experiment: relative viability (nuclei count vs DMSO), 5 days (fraction); higher = more cells survive
Outline: (§1)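 Five library-drug doses in √10 steps were combined with a fixed anchor-drug dose, or a single drug was given alone, by pin tool to lung cancer cell lines in 1536-well plates the day after seeding. Nuclei were stained and counted after 5 days. Relative viability is the nuclei count in treated wells over that in vehicle wells, taken as the median of duplicate plates.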

OSI-027 + Trametinib = compound: COc1cccc2cc(-c3nc([C@H]4CC[C@H](C(=O)O)CC4)n4ncnc(N)c34)[nH]c12 [OSI-027] + CC(=O)Nc1cccc(-n2c(=O)n(C3CC3)c(=O)c3c(Nc4ccc(I)cc4F)n(C)c(=O)c(C)c32)c1 [Trametinib] (partner 0.02 µM); experiment: as above
Outline: as §1

Cell Line	relative viability (Alpelisib + Dasatinib; first compound 0.04 µM)	relative viability (Alpelisib + Dasatinib; first compound 0.1265 µM)	relative viability (Alpelisib + Dasatinib; first compound 0.4 µM)	relative viability (Alpelisib + Dasatinib; first compound 1.265 µM)	relative viability (Alpelisib + Dasatinib; first compound 4 µM)	relative viability (OSI-027 + Trametinib; first compound 0.01 µM)	relative viability (OSI-027 + Trametinib; first compound 0.03162 µM)	relative viability (OSI-027 + Trametinib; first compound 0.1 µM)	relative viability (OSI-027 + Trametinib; first compound 0.3162 µM)	relative viability (OSI-027 + Trametinib; first compound 1 µM)
SK-LU-1	0.141	0.149	0.133	0.128	0.0997	0.458	0.491	0.457	0.334	0.327
LC-2-ad	0.596	0.448	0.63	0.23	0.225	0.903	0.872	0.945	0.927	0.694
NCI-H1793	0.299	0.379	0.525	0.356	0.351	0.489	0.431	0.35	0.344	0.21
LCLC-103H	0.45	0.442	0.468	0.418	0.359	0.708	0.645	0.65	0.609	0.689
NCI-H1944	0.208	0.217	0.203	0.163	0.144	0.379	0.399	0.405	0.355	0.298
NCI-H650	0.417	0.38	0.449	0.395	0.288	0.915	1.11	0.909	0.851	0.454
ChaGo-K-1	0.546	0.592	0.547	0.487	0.452	0.919	0.903	0.833	0.882	0.661
SK-MES-1	0.332	0.334	0.438	0.17	0.191	0.531	0.523	0.478	0.483	0.394
NCI-H2347	0.298	0.3	0.316	0.313	0.273	0.29	0.25	0.268	0.278	0.205
PC-14	0.256	0.243	0.23	0.221	0.202	0.793	0.934	0.71	0.649	0.282
LXF-289	0.257	0.164	0.177	0.121	0.114	0.681	0.707	0.752	0.612	0.357
NCI-H596	0.564	0.67	0.578	0.337	0.385	0.738	0.792	0.914	0.758	0.538
NCI-H358	0.157	0.176	0.164	0.112	0.121	0.114	0.129	0.123	0.112	0.117
NCI-H1355	0.708	0.551	0.699	0.434	0.443	0.401	0.458	0.341	0.3	0.252
NCI-H727	0.424	0.326	0.476	0.313	0.272	0.346	0.412	0.349	0.387	0.395
NCI-H2023	0.484	0.537	0.483	0.244	0.304	0.645	0.506	0.435	0.388	0.272
SW 900	0.534	0.58	0.612	0.578	0.518	0.933	0.866	0.789	0.712	0.608
NCI-H2009	0.309	0.281	0.353	0.223	0.198	0.272	0.283	0.2	0.196	0.195
HCC-78	0.367	0.326	0.357	0.366	0.314	0.689	0.646	0.74	0.637	0.35
NCI-H322M	0.225	0.223	0.257	0.253	0.273	0.509	0.543	0.496	0.482	0.455
